Assay results from the supplement of paper PMC10307832.

Tests used:
Experiment in all cases: relative viability (nuclei count vs DMSO), 5 days (fraction); higher = more cells survive
Carboplatin + Foretinib = compound: C1CC(C1)(C(=O)O)C(=O)O.[NH2-].[NH2-].[Pt+2] [Carboplatin] + COc1cc2c(Oc3ccc(NC(=O)C4(C(=O)Nc5ccc(F)cc5)CC4)cc3F)ccnc2cc1OCCCN1CCOCC1 [Foretinib] (partner 0.25 µM)
Outline: (§1)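 A single step with final 0.05% Triton X-100, 1% formaldehyde and 1 ug/ml Hoechst fixed the cells and stained nuclei 5 days after treatment. Lung cancer cell lines in 1536-well plates had been treated by pin tool the day after seeding with one drug alone or a fixed anchor-drug dose plus five library-drug doses (not always all listed) in √10 steps, and nuclei were counted on 4× images. Relative viability is the ratio of nuclei in treated wells to nuclei in vehicle wells, taken as the median of duplicate plates.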

GSK126 + Pemetrexed = compound: CC[C@H](C)N1C=C(C2=C(C=C(C=C21)C3=CN=C(C=C3)N4CCNCC4)C(=O)NCC5=C(C=C(NC5=O)C)C)C [GSK126] + Nc1nc2[nH]cc(CCc3ccc(C(=O)N[C@@H](CCC(=O)O)C(=O)O)cc3)c2c(=O)[nH]1 [Pemetrexed] (partner 0.2 µM)
Outline: as §1

MLN4924 + Tozasertib = compound: NS(=O)(=O)OC[C@@H]1C[C@@H](n2ccc3c(N[C@H]4CCc5ccccc54)ncnc32)C[C@@H]1O [MLN4924] + Cc1cc(Nc2cc(N3CCN(C)CC3)nc(Sc3ccc(NC(=O)C4CC4)cc3)n2)n[nH]1 [Tozasertib] (partner 0.1 µM)
Outline: as §1

MLN4924 + Decitabine = compound: NS(=O)(=O)OC[C@@H]1C[C@@H](n2ccc3c(N[C@H]4CCc5ccccc54)ncnc32)C[C@@H]1O [MLN4924] + Nc1ncn([C@H]2C[C@H](O)[C@@H](CO)O2)c(=O)n1 [Decitabine] (partner 2 µM)
Outline: as §1

Cell Line | relative viability (Carboplatin + Foretinib; first compound 0.08 µM) | relative viability (Carboplatin + Foretinib; first compound 0.253 µM) | relative viability (Carboplatin + Foretinib; first compound 0.8 µM) | relative viability (Carboplatin + Foretinib; first compound 2.53 µM) | relative viability (Carboplatin + Foretinib; first compound 8 µM) | relative viability (GSK126 + Pemetrexed; first compound 0.08 µM) | relative viability (GSK126 + Pemetrexed; first compound 0.253 µM) | relative viability (GSK126 + Pemetrexed; first compound 0.8 µM) | relative viability (GSK126 + Pemetrexed; first compound 2.53 µM) | relative viability (GSK126 + Pemetrexed; first compound 8 µM) | relative viability (MLN4924 + Tozasertib; first compound 0.04 µM) | relative viability (MLN4924 + Tozasertib; first compound 0.1265 µM) | relative viability (MLN4924 + Tozasertib; first compound 0.4 µM) | relative viability (MLN4924 + Tozasertib; first compound 1.265 µM) | relative viability (MLN4924 + Tozasertib; first compound 4 µM) | relative viability (MLN4924 + Decitabine; first compound 0.04 µM) | relative viability (MLN4924 + Decitabine; first compound 0.1265 µM) | relative viability (MLN4924 + Decitabine; first compound 0.4 µM) | relative viability (MLN4924 + Decitabine; first compound 1.265 µM) | relative viability (MLN4924 + Decitabine; first compound 4 µM)
HOP-62 | 0.984 | 1 | 1.07 | 1.04 | 0.994 | 0.335 | 0.355 | 0.284 | 0.289 | 0.419 | 0.359 | 0.198 | 0.0852 | 0.049 | 0.0903 | 0.195 | 0.201 | 0.0844 | 0.0618 | 0.0785
COR-L 105 | 0.986 | 0.993 | 0.902 | 0.897 | 0.578 | 1.08 | 0.987 | 0.887 | 1.11 | 1.12 | 0.343 | 0.331 | 0.323 | 0.247 | 0.241 | 0.658 | 0.523 | 0.397 | 0.263 | 0.328
NCI-H358 | 0.736 | 0.783 | 0.721 | 0.764 | 0.651 | 0.184 | 0.182 | 0.174 | 0.166 | 0.197 | 0.108 | 0.0992 | 0.0886 | 0.0878 | 0.0989 | 0.2 | 0.206 | 0.183 | 0.111 | 0.148
SK-MES-1 | 1.24 | 0.95 | 0.906 | 1.06 | 0.818 | 1.01 | 0.996 | 0.979 | 0.941 | 1.09 | 0.773 | 0.682 | 0.33 | 0.157 | 0.189 | 0.405 | 0.339 | 0.233 | 0.16 | 0.205
LC-2-ad | 1.03 | 1.04 | 0.994 | 0.874 | 0.679 | 0.257 | 0.265 | 0.278 | 0.281 | 0.253 | 0.434 | 0.344 | 0.362 | 0.218 | 0.198 | 0.791 | 0.748 | 0.585 | 0.508 | 0.322
H3255 | 0.905 | 0.872 | 0.875 | 0.898 | 0.836 | 0.596 | 0.548 | 0.568 | 0.898 | 0.58 | 0.671 | 0.374 | 0.339 | 0.236 | 0.286 | 0.469 | 0.392 | 0.338 | 0.228 | 0.218
A-427 | 1.16 | 1.15 | 1.03 | 0.992 | 1.16 | 1.03 | 0.937 | 1.03 | 1.08 | 0.991 | 0.168 | 0.164 | 0.128 | 0.131 | 0.133 | 0.445 | 0.421 | 0.309 | 0.282 | 0.265
NCI-H661 | 1.01 | 0.982 | 0.984 | 1 | 0.842 | 0.982 | 0.897 | 0.991 | 0.914 | 0.967 | 0.343 | 0.329 | 0.359 | 0.338 | 0.375 | 0.587 | 0.539 | 0.422 | 0.281 | 0.331
NCI-H1993 | 1.02 | 0.903 | 0.763 | 0.658 | 0.744 | 0.583 | 0.555 | 0.628 | 0.586 | 0.687 | 0.489 | 0.478 | 0.51 | 0.449 | 0.498 | 0.666 | 0.523 | 0.451 | 0.424 | 0.422
NCI-H1944 | 0.971 | 0.855 | 0.854 | 0.789 | 0.601 | 0.719 | 0.641 | 0.607 | 0.654 | 0.567 | 0.233 | 0.226 | 0.235 | 0.159 | 0.117 | 0.454 | 0.324 | 0.334 | 0.17 | 0.146
SK-LU-1 | 0.867 | 0.878 | 0.815 | 0.749 | 0.543 | 1.06 | 0.938 | 0.956 | 0.953 | 1.06 | 0.356 | 0.295 | 0.171 | 0.0898 | 0.111 | 0.645 | 0.661 | 0.309 | 0.29 | 0.24
NCI-H1915 | 1.12 | 1.13 | 1.04 | 1.05 | 0.81 | 0.573 | 0.484 | 0.504 | 0.477 | 0.484 | 0.399 | 0.362 | 0.395 | 0.212 | 0.159 | 0.271 | 0.262 | 0.235 | 0.202 | 0.142
NCI-H650 | 1.01 | 1.14 | 0.941 | 0.91 | 0.614 | 1.09 | 0.825 | 0.935 | 0.903 | 1.24 | 0.584 | 0.356 | 0.307 | 0.161 | 0.187 | 0.272 | 0.253 | 0.201 | 0.167 | 0.165
SW 1573 | 0.883 | 1.03 | 1.01 | 0.901 | 0.799 | 0.945 | 0.981 | 0.934 | 1.08 | 0.877 | 0.235 | 0.207 | 0.0978 | 0.0941 | 0.0688 | 0.525 | 0.313 | 0.158 | 0.0741 | 0.0974
NCI-H460 | 0.98 | 1.03 | 0.968 | 0.716 | 0.322 | 0.0714 | 0.0516 | 0.0631 | 0.0635 | 0.0781 | 0.464 | 0.484 | 0.421 | 0.228 | 0.0266 | 0.524 | 0.462 | 0.325 | 0.0402 | 0.0249
